Molecular target: T1, EGFR (Homo sapiens, UniProt P00533)
T1 construct: 6,7-Diprenoxycoumarin (50) antagonized EGF-induced phosphorylation EGFR in Hep3B; endogenous in cells; host or cells: Hep3B
Experiment: EGF-induced phosphorylation of EGFR in Hep3B (western blot)
Format: cell-based
Settings: 10 μM, 15 min
Experimental: Figure 4 6,7-Diprenoxycoumarin (50) antagonized EGF-induced phosphorylation EGFR in Hep3B. The Hep3B cells (1 × 10^6) were treated without (Ctrl) or with EGF in the absent 50 or present (EGF + 50) of 10 μM 50 for 15 min and phosphorylation status of EGFR was measured.
1 × 10^6 cells were seeded in a 10 cm plate, incubated at 37 °C for overnight and treated with various concentrations of compounds for the indicated times. After incubation, the culture medium was removed and washed twice with 2 mL ice-cold 1× PBS. Three hundred μL of protein lysis buffer (150 mM NaCl, 50 mM Tris-HCl (pH 7.4), 1% SDS, 1% Triton X-100, 1 mM PMSF) was added into each plate, scraped with a rubber policeman, collected into a premarked microtube and the incubated in ice for 1 h, sonicated by Ultrasonic Cell Disruptor for three time at 5 s each. The cell lysated was cleared by centrifugation at 12,000× g for 15 min at 4 °C. Supernatants were transferred into a fresh marked microtube and stored at −20 °C for future use.
Protein concentration of each sample was determined using a BCA Protein Assay Kit (Pirece®, Thermo Scientific). Different percentages of SDS-PAGE gels were prepared according to the molecular size of proteins of interest. […] The emitted fluorescence from the membrane was caught on a LAS-4000 biomolecule imager (FUJI.).

T1 sequence (P00533 25-1210): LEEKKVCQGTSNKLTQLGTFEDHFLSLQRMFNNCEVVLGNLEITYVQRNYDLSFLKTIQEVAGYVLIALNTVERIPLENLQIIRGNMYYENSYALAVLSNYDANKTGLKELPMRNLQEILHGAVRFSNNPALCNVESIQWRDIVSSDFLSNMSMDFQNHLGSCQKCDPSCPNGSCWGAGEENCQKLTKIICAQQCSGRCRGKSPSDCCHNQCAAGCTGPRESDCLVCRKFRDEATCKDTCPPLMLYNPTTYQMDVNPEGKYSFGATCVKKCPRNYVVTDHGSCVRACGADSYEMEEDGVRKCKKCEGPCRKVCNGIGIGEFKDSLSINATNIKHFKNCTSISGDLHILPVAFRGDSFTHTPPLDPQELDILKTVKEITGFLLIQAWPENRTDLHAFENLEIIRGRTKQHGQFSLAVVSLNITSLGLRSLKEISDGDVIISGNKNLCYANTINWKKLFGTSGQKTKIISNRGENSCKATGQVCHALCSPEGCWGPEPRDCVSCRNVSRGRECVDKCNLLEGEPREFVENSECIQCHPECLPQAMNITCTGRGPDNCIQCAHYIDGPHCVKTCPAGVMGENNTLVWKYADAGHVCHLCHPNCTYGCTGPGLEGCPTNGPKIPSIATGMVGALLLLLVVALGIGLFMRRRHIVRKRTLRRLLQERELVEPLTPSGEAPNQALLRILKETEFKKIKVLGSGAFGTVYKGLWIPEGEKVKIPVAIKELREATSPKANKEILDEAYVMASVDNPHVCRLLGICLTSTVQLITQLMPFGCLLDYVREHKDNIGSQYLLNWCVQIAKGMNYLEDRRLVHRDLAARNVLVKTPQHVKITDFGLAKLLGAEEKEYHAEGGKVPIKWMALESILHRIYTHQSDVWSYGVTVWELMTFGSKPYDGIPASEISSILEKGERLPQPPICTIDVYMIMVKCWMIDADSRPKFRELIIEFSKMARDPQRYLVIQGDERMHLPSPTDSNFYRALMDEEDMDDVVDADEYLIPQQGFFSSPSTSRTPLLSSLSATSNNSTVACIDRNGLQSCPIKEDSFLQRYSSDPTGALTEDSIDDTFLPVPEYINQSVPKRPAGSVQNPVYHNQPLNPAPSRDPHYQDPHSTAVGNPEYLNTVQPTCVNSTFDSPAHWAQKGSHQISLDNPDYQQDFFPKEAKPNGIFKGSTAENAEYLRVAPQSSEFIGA

EGF-induced phosphorylation of EGFR: reduce
Structure (SMILES): CC(C)=CCOc1cc2ccc(=O)oc2cc1OCC=C(C)C [Compound 50, 6,7-diprenoxycoumarin]
